Biological target: T1, UapA (Aspergillus nidulans, UniProt Q07307)
T1 construct: full-length, C-terminal GFP tag (plasmid pAN510-GFP), expressed in A. nidulans uapAΔ uapCΔ azgAΔ pabaA1 argB2; homodimer
Test: inhibition of [3H]-xanthine uptake in germinating conidiospores
Format: cell-based
Text: inhibition of [3H]-xanthine uptake in germinating conidiospores on UapA | wild-type UapA can indeed bind L-ascorbate with very low affinity, reflected in a Ki

T1 sequence (Q07307 whole entry): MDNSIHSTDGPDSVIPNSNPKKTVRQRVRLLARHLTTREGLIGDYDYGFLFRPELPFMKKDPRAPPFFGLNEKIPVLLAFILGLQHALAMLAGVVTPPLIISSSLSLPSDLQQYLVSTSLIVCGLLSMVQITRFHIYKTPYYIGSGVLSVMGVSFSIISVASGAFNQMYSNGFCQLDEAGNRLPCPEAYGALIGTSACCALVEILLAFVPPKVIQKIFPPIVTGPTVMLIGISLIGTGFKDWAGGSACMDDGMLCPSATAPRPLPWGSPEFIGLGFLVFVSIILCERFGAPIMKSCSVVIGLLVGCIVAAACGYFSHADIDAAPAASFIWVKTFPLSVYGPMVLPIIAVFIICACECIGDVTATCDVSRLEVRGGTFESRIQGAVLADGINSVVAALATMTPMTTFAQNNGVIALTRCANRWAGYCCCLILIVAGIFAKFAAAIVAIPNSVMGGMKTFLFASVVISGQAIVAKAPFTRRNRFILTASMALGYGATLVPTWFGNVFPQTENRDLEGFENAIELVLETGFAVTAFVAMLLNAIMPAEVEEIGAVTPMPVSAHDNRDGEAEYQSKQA

O=C1O[C@H]([C@@H](O)CO)C(O)=C1O [L-ascorbate]
Ki: ~17 mM
